Data reported in ChEMBL document CHEMBL2434849, “The development of bis(hydroxymethyl)pyrrole analogs as bifunctional DNA cross-linking agents and their chemotherapeutic potential” (Eur J Med Chem, 2013).

Columns and labels:
MCF7 = assay: Cytotoxicity against human MCF7 cells; format: functional, cell-based
[1] = Cytotoxicity against human H460 cells; format: functional, cell-based; conditions: NCI-H460
PC-3 = assay: Cytotoxicity against human PC3 cells; format: functional, cell-based
B16 = assay: Antitumor activity against mouse B16 cells graft model at 12.5 mg/kg, ip qd for 9 days; format: functional; conditions: route intraperitoneal
P388 [2] = assay: Antitumor activity against mouse P388 cells graft model at 7.5 mg/kg, ip qd for 5 days; format: functional; conditions: route intraperitoneal
HL-60 = assay: Cytotoxicity against human HL60 cells; format: functional, cell-based
P388 [3] = assay: Antitumor activity against mouse P388 cells assessed as increase in life span of host; format: functional

Structure (SMILES)	IC50 (MCF7)	IC50 [1]	IC50 (HL-60)	further results
COc1ccc(-c2c(COC(=O)NC(C)C)c(COC(=O)NC(C)C)c3n2-c2ccccc2C3)cc1	34.2 µM	20.3 µM		IC50 (PC-3): 23.2 µM
CCNC(=O)OCc1c(COC(=O)NCC)c(-c2ccc(OC)cc2)n2c1Cc1ccccc1-2	25.9 µM	13.2 µM		IC50 (PC-3): 30.2 µM
COc1ccc2c(c1)CCn1c(C)c(COC(=O)NC(C)C)c(COC(=O)NC(C)C)c1-2				T/C (B16): 180%; T/C (P388 [2]): 232%
CC(C)NC(=O)OCc1c(COC(=O)NC(C)C)c(-c2ccc(Cl)c(Cl)c2)n2c1CCC2			1.5 µM	
CNC(=O)OCc1c(COC(=O)NC)c(-c2ccc(OC)cc2)n2c1Cc1ccccc1-2	20 µM	82.1 µM		
CC(C)NC(=O)OCc1c(COC(=O)NC(C)C)c(-c2ccc(F)cc2)n2c1SCC2			1.6 µM	
CC(C)NC(=O)OCc1c(COC(=O)NC(C)C)c(-c2ccc(Cl)cc2)n2c1SCC2			0.85 µM	
Cc1c(COC(=O)NC(C)C)c(COC(=O)NC(C)C)c2n1CS(=O)(=O)C2				Activity (P388 [3]): 118%
CC(C)NC(=O)OCc1c(COC(=O)NC(C)C)c(-c2ccccc2)n2c1SCC2			1.5 µM	
